Test: photoluminescence quantum yield (fraction); solvent given as SMILES

`Cc1ccc(C2=C3C=C(I)C=[N+]3[B-](F)(F)n3cc(I)cc32)cc1` gave a photoluminescence quantum yield (in C1CCCCC1) of 0.012, a photoluminescence quantum yield (in CC#N) of 0.005 and a photoluminescence quantum yield (in CCO) of 0.006. It also gave a photoluminescence quantum yield (in CCOC(C)=O) of 0.007, a photoluminescence quantum yield (in CO) of 0.005 and a photoluminescence quantum yield (in OCC(F)(F)F) of 0.006.

With `CN(C)c1ccc(/C=C/c2cc(/C=C/c3ccc(N(C)C)cc3)nc(/C=C/c3ccccc3)n2)cc1` the photoluminescence quantum yield (in ClCCl) was 0.72.

With `COc1ccc(C2=C(c3ccccc3)C(c3ccccc3)=[N+]3C2=Nc2c(-c4ccc(OC)cc4)c(-c4ccccc4)c(-c4ccccc4)n2[B-]3(F)F)cc1` the photoluminescence quantum yield (in Cc1ccccc1) was 0.04.

With `c1ccc2c(c1)Sc1ccc(-n3c4ccccc4c4ccccc43)cc1S2` the photoluminescence quantum yield (in CC1CCCCC1) was 0.04 and the photoluminescence quantum yield (in c1cc(-c2cccc(-n3c4ccccc4c4ccccc43)c2)cc(-n2c3ccccc3c3ccccc32)c1) was 0.1.

For `CN1/C(=C/C=C(/C=C/c2sc3ccccc3[n+]2C)c2ccc(F)cc2)Sc2ccccc21`, the photoluminescence quantum yield (in CCO) was 0.1, the photoluminescence quantum yield (in CO) was 0.09 and the photoluminescence quantum yield (in CS(C)=O) was 0.14.

`COCCC1=Cc2nc1ccc1[nH]c(cc1CCOC)c1nc(c(NC(=O)CCCC(=O)O)cc3[nH]c2cc3CCOC)C(CCOC)=C1` showed a photoluminescence quantum yield (in Cc1ccccc1) of 0.15.

In the case of `COc1ccc(/C=C/C2=C3CCc4ccccc4C3=[O+][B-](F)(F)O2)cc1`, the photoluminescence quantum yield (in ClCCl) was 0.04.

With `CN(C)CCCN1c2ccccc2Sc2ccc(C(F)(F)F)cc21` the photoluminescence quantum yield (in CC#N) was 0.0011, the photoluminescence quantum yield (in CO) was 0.001 and the photoluminescence quantum yield (in O) was 0.0014.

In the case of `CC1=C2CCc3ccccc3C2=[N+]2C1=C(c1ccc(I)cc1)c1c(C)c3c(n1[B-]2(F)F)-c1ccccc1CC3`, the photoluminescence quantum yield (in ClC(Cl)Cl) was 0.72.

`N#CC=C(c1ccc(N2c3ccccc3Oc3ccccc32)cc1)c1ccc(N2c3ccccc3Oc3ccccc32)cc1` gave a photoluminescence quantum yield (in Cc1ccccc1) of 0.371.

`CC1=[N+]2C(=C(c3ccc(C(=C(c4ccccc4)c4ccccc4)c4ccccc4)cc3)c3ccc(/C=C/c4ccc(C(=C(c5ccccc5)c5ccccc5)c5ccccc5)cc4)n3[B-]2(F)F)C=C1` gave a photoluminescence quantum yield (in C1CCOC1) of 0.619.

Work on `CC(C)Oc1ccc(C#Cc2ccc3ccc(=O)oc3c2)cc1` yielded a photoluminescence quantum yield (in CC#N) of 0.034.

Work on `CCCCCCCCCCCCN1C(=O)c2c(c3ccc4cc(-c5ccc(OC)cc5)c(OC)cc4c3c3c2ccc2cc(-c4ccc(OC)cc4)c(OC)cc23)C1=O` yielded a photoluminescence quantum yield (in ClCCl) of 0.196.

`C[Si]1(c2ccccc2)C(c2ccc(-n3c4ccccc4c4ccccc43)cc2)=C(c2ccccc2)C(c2ccccc2)=C1c1ccc(-n2c3ccccc3c3ccccc32)cc1` showed a photoluminescence quantum yield (in C1CCOC1) of 0.032.

Work on `CCCCCCCCCCCCn1cccc1/C=C/c1cc(OCCCC)c(/C=C/c2cccn2CCCCCCCCCCCC)cc1OCCCC` yielded a photoluminescence quantum yield (in Cc1ccccc1) of 0.4.

With `O=S1(=O)c2ccc(-c3ccc(-n4c5ccccc5c5ccccc54)cc3)cc2C2(c3ccccc3-c3ccccc32)c2cc(-c3ccc(-n4c5ccccc5c5ccccc54)cc3)ccc21` the photoluminescence quantum yield (in ClCCl) was 0.86.

`CCOC(=O)C(Cc1ccc(O[Si]2(Oc3ccc(CC(NC(C)=O)C(=O)OCC)cc3)n3c4c5ccccc5c3/N=C3N=C(/N=c5/c6ccccc6/c(n52)=N/C2=NC(=N\4)/c4ccccc42)c2ccccc2\3)cc1)NC(C)=O` (stereo not drawn) showed a photoluminescence quantum yield (in CN(C)C=O) of 0.11.

Work on `N#Cc1cccc2c(N)c(-c3nn([C@H]4C[C@H](O)[C@@H](CO)O4)c4ncnc(N)c34)ccc12` yielded a photoluminescence quantum yield (in C1COCCO1) of 0.47, a photoluminescence quantum yield (in CC#N) of 0.23 and a photoluminescence quantum yield (in CC(C)O) of 0.19. It also gave a photoluminescence quantum yield (in CCO) of 0.13, a photoluminescence quantum yield (in CCOC(C)=O) of 0.29 and a photoluminescence quantum yield (in CN(C)C=O) of 0.21. It also gave a photoluminescence quantum yield (in CO) of 0.07, a photoluminescence quantum yield (in CS(C)=O) of 0.18 and a photoluminescence quantum yield (in OCC(O)CO) of 0.12. For the same molecule, the photoluminescence quantum yield (in OCCO) was 0.08.

`CCCSc1ccc2n1[B-](F)(F)[N+]1=CC=CC1=C2c1ccccc1` gave a photoluminescence quantum yield (in CC#N) of 0.03, a photoluminescence quantum yield (in CCCCCC) of 0.03 and a photoluminescence quantum yield (in CCOC(C)=O) of 0.03. The photoluminescence quantum yield (in CO) was 0.02 and the photoluminescence quantum yield (in ClCCl) was 0.04.

Work on `CC(C)(C)c1ccc(-c2nnc(-c3c(-n4c5ccccc5c5ccccc54)c(-n4c5ccccc5c5ccccc54)c(-n4c5ccccc5c5ccccc54)c(-n4c5ccccc5c5ccccc54)c3-n3c4ccccc4c4ccccc43)o2)cc1` yielded a photoluminescence quantum yield (in Cc1ccccc1) of 0.13.

For `c1ccc(-c2nnc(-c3ccc(N4c5ccccc5N(c5ccccc5)c5ccccc54)cc3)o2)cc1`, the photoluminescence quantum yield (in Cc1ccccc1) was 0.12 and the photoluminescence quantum yield (in c1cc(-n2c3ccccc3c3ccccc32)cc(-n2c3ccccc3c3ccccc32)c1) was 0.45.

`CCCCN(CCCC)c1ccc(C#Cc2cc(C#Cc3ccc(C(F)(F)F)cc3)c(C#Cc3ccc(C(F)(F)F)cc3)cc2C#Cc2ccc(N(CCCC)CCCC)cc2)cc1` showed a photoluminescence quantum yield (in ClCCl) of 0.44.

`Brc1c(Br)c2ccc3c(Br)c(Br)c4ccc5ccc1c1c5c4c3c21` gave a photoluminescence quantum yield (in C1CCCCC1) of 0.0012.

Molecule `CCCCCCCCCCOc1ccc2c3c(oc2c1)C1=C2C(=O)N4C=Cc5c(oc6cc(OCCCCCCCCCC)ccc56)C4=C2C(=O)N1C=C3` has a photoluminescence quantum yield (in CN(C)C=O) of 0.5 and a photoluminescence quantum yield (in ClC(Cl)Cl) of 0.7.

`F[B-]1(F)n2c(cc(-c3ccccc3)c2-c2ccccc2)C(c2ccccc2)=C2C=C(c3ccccc3)C(c3ccccc3)=[N+]21` showed a photoluminescence quantum yield (in C1CCOC1) of 0.33, a photoluminescence quantum yield (in CC#N) of 0.34 and a photoluminescence quantum yield (in Cc1ccccc1) of 0.64. The photoluminescence quantum yield (in ClCCl) was 0.4.

Work on `CCCCOC(=O)c1cc(Oc2ccc(OC)cc2)c2c3c(Cl)cc4c5c(cc(Cl)c(c6c(Oc7ccc(OC)cc7)cc(C(=O)OCCCC)c1c26)c53)C(=O)N(c1c(C(C)C)cccc1C(C)C)C4=O` yielded a photoluminescence quantum yield (in Cc1ccccc1) of 0.55.

Molecule `Cc1cccc(C)c1/C=C/c1nc(N2CCOCC2)c2c([n+]1[O-])CCCC2` has a photoluminescence quantum yield (in ClCCl) of 0.29.

`CCOC(=O)c1c2c3c(ccc(Cl)c3c3cc4c(cc13)[Si](C)(C)O[Si]4(C)C)N(C)C2=O` showed a photoluminescence quantum yield (in CC#N) of 0.45.

`CCC1(CC)c2cc(C=O)ccc2-c2ccc(N(C)C)cc21` gave a photoluminescence quantum yield (in C1CCCCC1) of 0.02, a photoluminescence quantum yield (in CC#N) of 0.81 and a photoluminescence quantum yield (in CCO) of 0.64. The photoluminescence quantum yield (in CCOCC) was 0.71, the photoluminescence quantum yield (in CS(C)=O) was 0.92 and the photoluminescence quantum yield (in ClCCl) was 0.91. The photoluminescence quantum yield (in c1ccccc1) was 0.82.

For `CCOC(=O)c1c2c3c(ccc(F)c3c3cc4ccccc4cc13)N(C)C2=O`, the photoluminescence quantum yield (in CC#N) was 0.41.

Molecule `CC(C)(C)c1ccc2c3ccccc3c3cncnc3c2c1` has a photoluminescence quantum yield (in ClCCl) of 0.03.

For `c1ccc(-c2ccc(-c3cc(-c4ccc(-c5ccccc5)cc4)cc(-c4ccc(-c5ccccc5)cc4)c3)cc2)cc1`, the photoluminescence quantum yield (in C1COCCO1) was 0.27.

`CCCCCCCC(=O)Oc1ccc2c3cccc4c(OC(=O)CCCCCCC)ccc(c5cccc1c52)c43` gave a photoluminescence quantum yield (in C1CCOC1) of 0.97, a photoluminescence quantum yield (in Cc1ccccc1) of 0.97 and a photoluminescence quantum yield (in ClC(Cl)(Cl)Cl) of 0.06. The photoluminescence quantum yield (in ClC(Cl)Cl) was 0.91, the photoluminescence quantum yield (in ClCCl) was 0.8 and the photoluminescence quantum yield (in c1ccncc1) was 0.93.

Work on `Cc1ccc2c(c1)C1(c3ccccc3Oc3ccccc31)c1cc(C)ccc1N2c1ccc(-c2nc(-c3ccccc3)cc(-c3ccccc3)n2)cc1` yielded a photoluminescence quantum yield (in O=P(c1ccccc1)(c1ccccc1)c1ccc2oc3ccc(P(=O)(c4ccccc4)c4ccccc4)cc3c2c1) of 0.69.

Molecule `N#Cc1nc2c(OCc3ccccc3)nc(N)nc2n1Cc1ccccc1` has a photoluminescence quantum yield (in C1COCCO1) of 0.73, a photoluminescence quantum yield (in CC#N) of 0.65 and a photoluminescence quantum yield (in CO) of 0.14. It also gave a photoluminescence quantum yield (in ClCCl) of 0.81.

Molecule `COC(=O)C(Cc1ccc2oc(-c3ccc4c(c3)c3ccccc3n4-c3ccccc3)nc2c1)NC(=O)OC(C)(C)C` (stereo not drawn) has a photoluminescence quantum yield (in C1CCCCC1) of 0.76, a photoluminescence quantum yield (in C1CCOC1) of 0.84 and a photoluminescence quantum yield (in C1COCCO1) of 1. It also gave a photoluminescence quantum yield (in CC1CCCO1) of 0.93, a photoluminescence quantum yield (in CC1COC(=O)O1) of 1 and a photoluminescence quantum yield (in CC#N) of 0.99. The photoluminescence quantum yield (in CC(C)=O) was 0.63, the photoluminescence quantum yield (in CC(C)CC(C)(C)C) was 0.86 and the photoluminescence quantum yield (in CC(C)CO) was 1. The photoluminescence quantum yield (in CC(C)O) was 1, the photoluminescence quantum yield (in CC(C)OC(C)C) was 0.55 and the photoluminescence quantum yield (in CC(O)CO) was 1. It also gave a photoluminescence quantum yield (in CCC(C)CC) of 0.59, a photoluminescence quantum yield (in CCCCC) of 0.59 and a photoluminescence quantum yield (in CCCCCC) of 0.58. For the same molecule, the photoluminescence quantum yield (in CCCCCCCCC) was 0.72, the photoluminescence quantum yield (in CCCCCCCCCC) was 0.75 and the photoluminescence quantum yield (in CCCCCCCO) was 1. It also gave a photoluminescence quantum yield (in CCCCCCO) of 0.94, a photoluminescence quantum yield (in CCCCCO) of 1 and a photoluminescence quantum yield (in CCCCO) of 1. The photoluminescence quantum yield (in CCO) was 1, the photoluminescence quantum yield (in CCOC(C)=O) was 0.96 and the photoluminescence quantum yield (in CCOCC) was 0.68. For the same molecule, the photoluminescence quantum yield (in CN(C)C=O) was 1, the photoluminescence quantum yield (in CO) was 0.99 and the photoluminescence quantum yield (in COCCOC) was 0.7. The photoluminescence quantum yield (in CS(C)=O) was 0.88, the photoluminescence quantum yield (in Cc1ccccc1) was 0.78 and the photoluminescence quantum yield (in Cc1ccccc1C) was 0.92. It also gave a photoluminescence quantum yield (in ClC(Cl)Cl) of 0.93, a photoluminescence quantum yield (in ClCCl) of 0.94 and a photoluminescence quantum yield (in NC=O) of 0.82. It also gave a photoluminescence quantum yield (in OC1CCCCC1) of 0.95, a photoluminescence quantum yield (in OCCO) of 1 and a photoluminescence quantum yield (in c1ccccc1) of 0.97.

Molecule `c1ccc(-c2nc(-c3c[nH]c4ccccc34)n3ccccc23)cc1` has a photoluminescence quantum yield (in ClCCl) of 0.162.

In the case of `O=c1oc2ccccc2cc1-c1cc2ccccc2o1`, the photoluminescence quantum yield (in CC#N) was 0.75, the photoluminescence quantum yield (in CCOC(C)=O) was 0.79 and the photoluminescence quantum yield (in CS(C)=O) was 0.99. For the same molecule, the photoluminescence quantum yield (in Cc1ccccc1) was 0.88 and the photoluminescence quantum yield (in O) was 0.15.

Work on `COc1ccc2c(c1)[nH]c1c3[nH]c4cc(OC)ccc4c3c3nsnc3c21` yielded a photoluminescence quantum yield (in CN(C)C=O) of 0.47, a photoluminescence quantum yield (in Cc1ccccc1) of 0.5 and a photoluminescence quantum yield (in ClCCl) of 0.5.

Work on `CC(=O)c1ccc(-c2nc3ccc(N(C)C)cc3s2)cc1` yielded a photoluminescence quantum yield (in C1CCCCC1) of 0.88, a photoluminescence quantum yield (in CC#N) of 0.88 and a photoluminescence quantum yield (in CO) of 0.041. It also gave a photoluminescence quantum yield (in ClC(Cl)Cl) of 0.99.

`CCN1c2ccc(/C=N/Nc3ccccn3)cc2Sc2cc(/C=N/Nc3ccccn3)ccc21` gave a photoluminescence quantum yield (in C1CCOC1) of 0.15, a photoluminescence quantum yield (in CS(C)=O) of 0.19 and a photoluminescence quantum yield (in Cc1ccccc1) of 0.14. For the same molecule, the photoluminescence quantum yield (in ClCCl) was 0.37.

Molecule `CCN(CC)c1ccc2cc(-c3nc4ccccc4n3-c3ccccc3)c(=O)oc2c1` has a photoluminescence quantum yield (in ClCCl) of 0.94.

`Fc1ccc(C2=C(c3ccc(F)cc3)c3cccc4c3c(cc3nc5ccccc5nc34)O2)cc1` showed a photoluminescence quantum yield (in ClCCl) of 0.35.

In the case of `O=C([O-])c1ccc2cc3cc(C(=O)[O-])ccc3cc2c1`, the photoluminescence quantum yield (in CN(C)C=O) was 0.11.
